For one test, the target named is Glucocerebrosidase (Homo sapiens (Human), UniProt P04062). In words: Glucocerebrosidase activity assay with blue substrate (4MU-Glc). The format is biochemical. Conditions: direction not given. As to the method:
The compounds in DMSO solution 0.5 μL/well were transferred to a black 96-well plate. The final titration was 24 nM to 50 μM, 12 concentrations, 2 times dilution. […] After 5 min of incubation at room temperature, the enzyme reaction was initiated by the addition of 33 μL/well blue substrate. Final concentrations of the blue substrate (4MU-Glc) was 1.5 mM. The blue substrate reaction was terminated by the addition of 33 μL/well stop solution (1 M NaOH and 1 M glycine mixture, pH 10) after 30 min of incubation at 37° C. The fluorescence was then measured in the Biotek Synergy H1 multi-mode plate reader with Ex=365 nm and Em=440 nm.
Additional compounds were prepared and tested according to the procedures provided in the examples above.
Additional substituted quinazoline compounds were prepared and tested according to the procedures provided in the examples above.
Glucocerebrosidase, sequence (P04062 40-536): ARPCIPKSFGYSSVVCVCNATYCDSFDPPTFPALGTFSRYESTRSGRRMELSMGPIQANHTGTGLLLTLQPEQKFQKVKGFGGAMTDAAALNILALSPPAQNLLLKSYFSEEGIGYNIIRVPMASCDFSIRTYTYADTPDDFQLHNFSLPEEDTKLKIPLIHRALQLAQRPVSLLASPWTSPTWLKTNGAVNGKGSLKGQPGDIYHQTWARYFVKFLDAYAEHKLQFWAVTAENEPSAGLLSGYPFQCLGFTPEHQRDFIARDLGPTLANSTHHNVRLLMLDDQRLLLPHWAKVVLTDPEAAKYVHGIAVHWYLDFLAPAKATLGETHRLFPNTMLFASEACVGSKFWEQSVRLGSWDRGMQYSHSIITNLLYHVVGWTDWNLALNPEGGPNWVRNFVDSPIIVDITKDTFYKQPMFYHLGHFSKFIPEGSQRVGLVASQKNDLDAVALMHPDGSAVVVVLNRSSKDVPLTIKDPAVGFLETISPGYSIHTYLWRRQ
As for `CN(CCOc1ccccc1)c1nc(-c2ccc(F)cc2)nc2ccccc12` [compound 129], the “Activity AC50 or IC50” value is given as “Inactive”.

As to `CN(CCOc1ccccc1)c1nc(-c2ccccc2)nc2ccccc12` [compound 131], the “Activity AC50 or IC50” value is given as “Inactive”. Same read-out and setting: for `CN(CCOc1ccccc1)c1nc(-c2ccsc2)nc2ccccc12` [compound 126] the value was “Inactive”.

The same test, now with this note: marked (act), activator, AC50.
As for `[N-]=[N+]=Nc1c(F)c(F)c(CNc2nc(-c3cccnc3)nc3ccccc23)c(F)c1F` [compound 37], the “IC50 or AC50 (act)” value is reported as “Weak (act)”. On the same count and under the same terms, for `CC(C)(C)Nc1nc(-c2cccnc2)nc2ccccc12` [compound 54] the value was “Weak (act)”.

The same test, now with this note: marked (inh), inhibitor.
On to `CN1CCC(Nc2nc(-c3cccnc3)nc3ccccc23)CC1` [compound 45], for which the “IC50 or AC50 (inh)” value was “Weak (inh)”.

Staying with this test, now noted: marked (inh), inhibitor; read-out: IC50 or AC50 (inh).
In general, IC50 refers to the concentration that inhibits the measured activity by half. Regarding `c1cncc(-c2nc(NCCC3CCCCC3)c3ccccc3n2)c1` [compound 63], the IC50 worked out at 282 nM.

For the molecule `CN(c1nc(-c2cccnc2)nc2ccccc12)C1CCc2ccccc2C1` (centres unmarked) [compound 75], the IC50 was found to be 1580 nM. Same read-out and setting: the figure for `CC(C)N1CCC(Nc2nc(-c3cccnc3)nc3ccccc23)CC1` [compound 41] is 35500 nM. As to `CC1CCCC(Nc2nc(-c3cccnc3)nc3ccccc23)C1` (centres unmarked) [compound 86], the IC50 stood at 79 nM. Same read-out and setting: for `FC1(F)CCC(Nc2nc(-c3cccnc3)nc3ccccc23)CC1` [compound 65] the value was 316 nM; for `c1ccc(CCNc2nc(-c3cccnc3)nc3ccccc23)nc1` [compound 69], 1120 nM; for `O=C(C1COc2ccccc2O1)N1CCN(c2nc(-c3cccnc3)nc3ccccc23)CC1` (centres unmarked) [compound 29], 2240 nM.

Staying with this test, now noted: marked activator, AC50.
`COC(=O)CCCCCCCCC#Cc1ccc(OCCN(C)c2nc(-c3cccnc3)nc3ccccc23)cc1` [compound 109]: the “Activity AC50 or IC50 (activator)” value was “Weak activator”. For `CN(CCOc1ccc(C#CCCCCCCCCC(=O)ON2C(=O)CCC2=O)cc1)c1nc(-c2cccnc2)nc2ccccc12` [compound 153], the “Activity AC50 or IC50 (activator)” value is “activator”. Turning to `CN(c1nc(-c2cccnc2)nc2ccccc12)C1Cc2ccc(C#CCCCCCCCCC(=O)ON3C(=O)CCC3=O)cc2C1` (centres unmarked) [compound 105], the “Activity AC50 or IC50 (activator)” value was “Weak activator”.

The test is the same for the next values; noted with them: marked activator, AC50; read-out: Activity AC50 or IC50 (activator).
The AC50 is the concentration at which the activity in the assay is half-maximal. For `c1cncc(-c2nc(N3CCc4[nH]c5ccccc5c4C3)c3ccccc3n2)c1` [compound 93], the AC50 turned out to be 6310 nM.

Staying with this test, now noted: marked inhibitor.
In the case of `CN(CCOc1ccccc1)c1nc(-c2ccc(N)cc2)nc2ccccc12` [compound 144], the “Activity AC50 or IC50 (inhibitor)” value was “Weak inhibitor”.

Still in this test, the particulars now being: marked inhibitor, nM indicated; read-out: Activity AC50 or IC50 (inhibitor).
`CC(C)(C)OC(=O)NCCOCCOCC(=O)Nc1ccc(-c2nc(NC3Cc4ccccc4C3)c3ccccc3n2)cc1` [compound 146]: the IC50 was 39.8 nM.

The test is the same for the next values; noted with them: marked inhibitor; read-out: Activity AC50 or IC50 (inhibitor).
For `CN(CCOCc1ccccc1)c1nc(-c2cccnc2)nc2ccccc12` [compound 141], the IC50 turned out to be 11200 nM. Take `Brc1ccc2c(c1)CC(Nc1nc(-c3cccnc3)nc3ccccc13)C2` (centres unmarked) [compound 100]: the IC50 came out at 178 nM.

Another test deals with wild-type GCase (Homo sapiens (Human), UniProt P04062). In words: GCase enzyme activity assay (4MU-β-Glc, no taurocholate).
wild-type GCase, sequence (P04062 40-536): as above
Conditions: not given
It counts as biochemical. The procedure:
In previous studies, high concentrations of taurocholate (4-10 mM) were used to improve the signal in GCase enzyme activity assays^16,27,28. […] Here we describe our modifications of the substituents on the quinazoline ring.
4-Methylumbelliferyl β-D-glucopyranoside (4MU-β-Glc), 4-methylumbelliferyl α-D-glucopyranoside,4-methylumbelliferyl α-D-galactopyranoside, and buffer components were purchased from Sigma-Aldrich (St. Louis, Mo.). The recombinant wild-type GCase enzyme velaglucerase alfa (Vpriv®, Shire Human Genetic Therapies, Inc.), acid α-glucosidase enzyme alglucosidase alfa (Lumizyme®, Genzyme Corporation), α-galactosidase A enzyme agalsidase beta (Fabrazyme®, Genzyme Corporation) were used in activity assays. […] A solution of 1 M sodium hydroxide and 1 M glycine (pH 10) was used as the stop solution for all three enzyme activity assays.
The compounds in DMSO solution (0.5 μL/well) were transferred to a black 96-well plate (the final titration started from 100 μM, a 12 or 24-point 2-fold dilution series). […] After 5 min of incubation at room temperature, the enzyme reaction was initiated by the addition of blue substrate (4MU-13-Glc) (33 μL/well). The final concentration of the blue substrate was 1.5 mM. The blue substrate reaction was terminated by the addition of 33 μL/well stop solution (1 M NaOH and 1 M glycine mixture, pH 10) after 30 min of incubation at 37° C. […] The selected compounds were further assayed under pH 5.0 and pH 7.0 to evaluate their selectivity under various pH conditions.
Consider `c1cncc(-c2nc(NC3CCCc4ccccc43)c3ccccc3n2)c1` (centres unmarked) [Compound 9d], for which the “GCase inhibitory activity in words” value is listed as “low micromolar range”.

For `c1cncc(-c2nc(NC3CCc4ccccc43)c3ccccc3n2)c1` (centres unmarked) [Compound 9e], the “GCase inhibitory activity in words” value is “low micromolar range”.

The test is the same for the next values; noted with them: Table 1, pH 5.9, mean ± SD; read-out: IC50.
For `CC1CCC(Nc2nc(-c3cccnc3)nc3ccccc23)CC1` (single isomer, unassigned) [Compound 6a], the IC50 stood at 56 ± 5 nM. Same read-out and setting: the figure for `CC1(C)CCC(Nc2nc(-c3cccnc3)nc3ccccc23)CC1` [Compound 6e] is 431 ± 42 nM; for `CC(C)N1CCC(Nc2nc(-c3cccnc3)nc3ccccc23)CC1` [Compound 6j] it is 33200 ± 9710 nM; for `CC1CCC(Nc2nc(-c3cccnc3)nc3ccccc23)CC1` (single isomer, unassigned) [Compound 6c] it is 20 ± 2 nM. For `FC1(F)CCC(Nc2nc(-c3cccnc3)nc3ccccc23)CC1` [Compound 6f], the IC50 worked out at 234 ± 17 nM. Take `c1cncc(-c2nc(NC3CCCOC3)c3ccccc3n2)c1` (centres unmarked) [Compound 6h]: the IC50 amounted to 891 ± 23 nM. Still for that read-out and setting: the figure for `COC1CCC(Nc2nc(-c3cccnc3)nc3ccccc23)CC1` (centres unmarked) [Compound 6d] is 251 ± 18 nM; for `c1ccc(CN2CCC(Nc3nc(-c4cccnc4)nc4ccccc34)CC2)cc1` [Compound 6k] it is 36100 ± 8720 nM.

Staying with this test, now noted: Table 2, pH 5.9, mean ± SD; read-out: IC50.
On to `c1cncc(-c2nc(NCCC3CCCCC3)c3ccccc3n2)c1` [Compound 7i], for which the IC50 was found to be 857 ± 33 nM. Same read-out and setting: the figure for `c1cncc(-c2nc(NC3CCCC3)c3ccccc3n2)c1` [Compound 7c] is 720 ± 50 nM; for `c1cncc(-c2nc(NC3CCC3)c3ccccc3n2)c1` [Compound 7d] it is 2840 ± 340 nM; for `c1cncc(-c2nc(NC3CCCCCC3)c3ccccc3n2)c1` [Compound 7b] it is 42 ± 3 nM.

`c1cncc(-c2nc(NC3CC3)c3ccccc3n2)c1` [Compound 7e]: the IC50 amounted to 28100 ± 3210 nM. Still for that read-out and setting: for `c1cncc(-c2nc(NC34CC5CC(CC(C5)C3)C4)c3ccccc3n2)c1` [Compound 7f] the value was 926 ± 80 nM.

In the case of `c1cncc(-c2nc(NC3CC4CCC3C4)c3ccccc3n2)c1` (centres unmarked) [Compound 7g], the IC50 is 282 ± 43 nM. For `c1cncc(-c2nc(NC3CCCCCCC3)c3ccccc3n2)c1` [Compound 7a], the IC50 was found to be 27 ± 2 nM. Same read-out and setting: for `c1cncc(-c2nc(NCC3CCCCC3)c3ccccc3n2)c1` [Compound 7h] the value was 405 ± 40 nM.

Staying with this test, now noted: Table 3, pH 5.9, mean ± SD; read-out: IC50.
Turning to `c1ccc(CCNc2nc(-c3cccnc3)nc3ccccc23)nc1` [Compound 8f], the IC50 was 1400 ± 120 nM.

In the case of `c1ccc(CCCCNc2nc(-c3cccnc3)nc3ccccc23)cc1` [Compound 8e], the IC50 was found to be 1280 ± 130 nM. For the molecule `c1cncc(CCNc2nc(-c3cccnc3)nc3ccccc23)c1` [Compound 8g], the 50% inhibitory concentration (IC50) turned out to be 4290 ± 570 nM.

On to `c1ccc(CCNc2nc(-c3cccnc3)nc3ccccc23)cc1` [Compound 8c], for which the IC50 is 97 ± 9 nM. With `c1ccc(CCCNc2nc(-c3cccnc3)nc3ccccc23)cc1` [Compound 8d], the IC50 was found to be 1530 ± 220 nM.

The test is the same for the next values; noted with them: Table 4, pH 5.9, mean ± SD; read-out: IC50.
For `c1cncc(-c2nc(NC3CCCc4ccccc43)c3ccccc3n2)c1` (centres unmarked) [Compound 9d], the IC50 is 872 ± 71 nM.

In the case of `c1cncc(-c2nc(NC3Cc4ccccc4C3)c3ccccc3n2)c1` [Compound 9c], the IC50 worked out at 8.3 ± 1 nM.

Turning to `c1cncc(-c2nc(NC3CCc4ccccc43)c3ccccc3n2)c1` (centres unmarked) [Compound 9e], the IC50 came out at 821 ± 73 nM.

Staying with this test, now noted: Table 5, pH 5.9, mean ± SD; read-out: IC50.
As for `Cc1ccncc1-c1nc(NC2Cc3ccccc3C2)c2ccccc2n1` [Compound 11a, N-(2,3-dihydro-1H-inden-2-yl)-2-(4-methylpyridin-3-yl)quinazolin-4-amine], the IC50 was found to be 122 ± 12 nM. On the same count and under the same terms, the figure for `Cc1ccc(-c2nc(NC3Cc4ccccc4C3)c3ccccc3n2)cn1` [Compound 11c, N-(2,3-dihydro-1H-inden-2-yl)-2-(6-methylpyridin-3-yl)quinazolin-4-amine] is 29.4 ± 3.6 nM; for `c1coc(-c2nc(NC3Cc4ccccc4C3)c3ccccc3n2)c1` [Compound 11h, N-(2,3-dihydro-1H-inden-2-yl)-2-(furan-2-yl)quinazolin-4-amine] it is 21.1 ± 2.4 nM; for `c1ccc2c(c1)CC(Nc1nc(-c3ccncc3)nc3ccccc13)C2` [Compound 11e, N-(2,3-dihydro-1H-inden-2-yl)-2-(pyridin-4-yl)quinazolin-4-amine] it is 168 ± 18 nM. For the molecule `Cc1cncc(-c2nc(NC3Cc4ccccc4C3)c3ccccc3n2)c1` [Compound 11b, N-(2,3-dihydro-1H-inden-2-yl)-2-(5-methylpyridin-3-yl)quinazolin-4-amine], the IC50 is 12.5 ± 1.7 nM.

Staying with this test, now noted: pH 5.0, mean ± SD; read-out: IC50 pH 5.0.
As to `c1cncc(-c2nc(NC3Cc4ccccc4C3)c3ccccc3n2)c1` [Compound 9c], the IC50 was found to be 25.9 ± 3.9 nM.

The test is the same for the next values; noted with them: pH 7.0, mean ± SD; read-out: IC50 pH 7.0.
Turning to `c1cncc(-c2nc(NC3Cc4ccccc4C3)c3ccccc3n2)c1` [Compound 9c], the IC50 worked out at 12.7 ± 1.4 nM.

The test is the same for the next values; noted with them: read-out: IC50.
Take `CC1CCC(Nc2nc(-c3cccnc3)nc3ccccc23)CC1` (single isomer, unassigned) [Compound 6c]: the IC50 is 20 nM.

These data come from patent US10167270B2, “Substituted quinazoline compounds and uses thereof for modulating glucocerebrosidase activity” (Northwestern University, priority 2015, dated 2019).
